Assay results taken from patent EP4574147A1, “COMPOSITION FOR PREVENTING, AMELIORATING, OR TREATING CANCER COMPRISING STEPPOGENIN AS ACTIVE INGREDIENT” (Kyungpook National University Industry-Academic Cooperation …, priority 2022, dated 2024).
Each block holds one compound with its values, some of them ahead of it.

Experiments:
[1] = test system: Lewis lung carcinoma (LLC)-allografted tumor models; test: Lewis lung carcinoma allograft tumor model with immunohistochemical analysis; assay type: in vivo, C57BL/6J mice; conditions: for average body weights between the groups during the administration period: intraperitoneal (FIG. 6b)
Protocol: Six-week-old adult male C57BL/6J mice (SLC, Japan) were used and housed in a specific pathogen-free facility with an individual ventilation system at Kyungpook National University.
To manufacture Lewis lung carcinoma (LLC)-allografted tumor models, LLC cell suspensions (5 × 10^5 cells in 200 µL of serum-free culture medium) were subcutaneously transplanted into the dorsal flank area of 6-week-old male C57BL/6J mice. After inoculating the LLC cells, the mice were administered 17-AAG (25 mg/kg) or steppogenin (2 mg/kg) via intraperitoneal injection at various time points. Next, tumor volumes were measured according to the following formula: V = 0.5 × A × B^2, where A and B represent the longest and shortest dimensions, respectively. Finally, the mice were anesthetized and tissues were collected for further analysis.
For immunohistochemical analysis, collected tumor or tissue samples were fixed in 4% paraformaldehyde and embedded in tissue-freezing medium (Leica, Wetzlar, Germany). Frozen blocks were cut into 10 µm sample sections, blocked with 3% BSA in PBST (0.3% Triton X-100 in PBS), and incubated overnight at 4 °C with appropriate primary antibodies. Primary antibodies were as follows: anti-CD34 (Boster Bio, CA, USA), anti-DLL4 (R&D Systems, MN, USA), anti-pimonidazole (Hypoxyprobe-1, HPI, MA, USA), anti-CD3 (Abcam), anti-CD4 (Invitrogen), and anti-CD8 (Invitrogen). After several washes, the samples were incubated with recommended fluorophore-tagged secondary antibodies for 1 hour at room temperature. Next, cell nuclei were stained using Antifade Mounting Medium containing DAPI (Vector Laboratories, Burlingame, CA). Immunofluorescence images were acquired using a Zeiss confocal microscope (Carl Zeiss, Germany). Next, pimonidazole hydrochloride (60 mg/kg; Hypoxyprobe-1, HPI) was injected intravenously through the tail vein of mice and anesthetized 90 minutes later. Finally, tumor tissues were collected for further analysis.
To determine whether steppogenin induces vascular normalization, T-cell infiltration in tumor tissues was examined.

HIF-1α [2] = test: Immunofluorescence staining of intranuclear HIF-1α; assay type: cell-based, human; conditions: A549 cells, hypoxia 4 h, immunofluorescence (FIG. 4b)
Protocol: Cells were seeded at a density of 2 × 10^4 - 3 × 10^4 cells/well on coverslips of 4-well plates and cultured for 24 h. For HIF-1α staining, A549 cells were treated with various compounds and incubated under normoxia or hypoxia conditions for 4 h. […] Next, the cells were fixed with 4% paraformaldehyde and permeabilized with 1% Triton X-100. The fixed cells were blocked with phosphate-buffered saline (PBS) containing 3% bovine serum albumin (BSA) and then incubated with primary antibodies overnight. After incubation, the cells were incubated with secondary antibodies for 1 hour and their nuclei were stained using DAPI. The stained cells were visualized using a confocal microscope (Leica TCS SP5 II Dichroic/CS, Leica, Germany).

EA.hy926 cells = test: Wound-healing migration assay; assay type: cell-based, human
Protocol: EA.hy926 cells were seeded at a density of 4 × 10^4 cells/well in 12-well plates and incubated for 24 hours. The cells were starved overnight in a serum-free medium and treated with mitomycin C (0.5 µg/mL) for 1 h. When confluent, a wound was made with a pipette tip and the cells were washed with a serum-free medium to remove cell debris. Next, the plates were treated with a conditioned medium collected from HEK293T cell cultures under hypoxia conditions treated with steppogenin. Wound closure was monitored and photographs were taken at 0 h and 8 h. Cell migration was measured by calculating the wound area between 0 h and 8 h.

DLL4 [3] = test: Western blot analysis of VEGF-induced DLL4 protein level in endothelial cells; assay type: cell-based, human
Protocol: (§1) Proteins were extracted from cultured cells using RIPA lysis buffer (Thermo Scientific, Waltham, MA, USA). The protein extracts were separated using SDS-PAGE and transferred to nitrocellulose membranes (Whatman, Maidstone, England). The membranes were blocked with 5% skim milk in Tris-buffered saline containing 0.1% Tween-20 for 1 hour at room temperature. After blocking, the membranes were incubated with specific primary antibodies overnight at 4°C, and then incubated with secondary antibodies for 1 hour at room temperature. Proteins were detected using the Enhanced Chemiluminescence Kit (Bio-Rad, Hercules, CA, USA) according to the manufacturer's instructions. Primary antibodies against HIF-1α (BD Biosciences, San Diego, CA, USA), VEGF (Santa Cruz Biotechnology, Santa Cruz, CA, USA), CXCR4 (Abcam, Cambridge, UK), CA9 (Abcam), DLL4 (Santa Cruz Biotechnology), NOTCH1 (Thermo Scientific), and β-actin (Santa Cruz Biotechnology) were used.

Ki-67 = test: Immunofluorescence staining of Ki-67 in endothelial cells; assay type: cell-based, human; conditions: hypoxia
Protocol: (§2) Cells were seeded at a density of 2 × 10^4 - 3 × 10^4 cells/well on coverslips of 4-well plates and cultured for 24 h. For HIF-1α staining, A549 cells were treated with various compounds and incubated under normoxia or hypoxia conditions for 4 h. For Ki-67 and DLL4 staining, EA.hy926 cells were treated with the same compounds and maintained under VEGF (20 ng/mL) treatment. Next, the cells were fixed with 4% paraformaldehyde and permeabilized with 1% Triton X-100. The fixed cells were blocked with phosphate-buffered saline (PBS) containing 3% bovine serum albumin (BSA) and then incubated with primary antibodies overnight. After incubation, the cells were incubated with secondary antibodies for 1 hour and their nuclei were stained using DAPI. The stained cells were visualized using a confocal microscope (Leica TCS SP5 II Dichroic/CS, Leica, Germany).

DLL4 [4] = test: Immunofluorescence staining of DLL4 in endothelial cells; assay type: cell-based, human; conditions: hypoxia, immunofluorescence (FIG. 5b)
Protocol: as §2

[5] = test system: HIF-1α target genes VEGF, GLUT1, CXCR4, and CA9; test: Real-time qRT-PCR of HIF-1α target gene mRNA; assay type: cell-based; conditions: hypoxia (FIG. 4c)
Protocol: Total RNA was isolated using TRIzol Reagent (Invitrogen). The isolated RNA was used to synthesize cDNA using ReverTra Ace qPCR RT Master Mix (TOYOBO, Osaka, Japan) according to the manufacturer's protocol. The synthesized cDNA was mixed with gene-specific primers. Amplification real-time polymerase chain reaction (PCR) was performed using SYBR Green PCR Master Mix (Applied Biosystems, CA, USA). The heat cycle proceeded as follows: 50 °C for 2 min, 95 °C for 10 min, 40 cycles of denaturation at 95 °C for 15 s, and annealing at 60 °C for 1 min. Mean cycle threshold values were used to calculate mRNA expression with normalization to β-actin as an internal control.

EA.hy 926 cell = test: Spheroid sprouting assay; assay type: cell-based, human; conditions: VEGF treatment, 2 days (FIG. 5d)
Protocol: EA.hy 926 cell suspension (5×10^3 cells) was distributed on the lid of a 100 mm dish using a hanging-drop method and maintained for 24 hours. The next day, spheroids were harvested and mixed with Methocel stock solution containing 20% FBS. Next, spheroids containing Methocel solution were seeded in 24-well plates. After incubation at 37°C for 30 minutes, VEGF or steppogenin was added to the polymerized Methocel solution and incubated for 2 days.

HIF-1α [6] = test: Western blot analysis of HIF-1α protein expression under hypoxia; assay type: cell-based, human; conditions: for HIF-1α protein levels: dose-dependent, maximum dose 3 µM (FIG. 4a)
Protocol: as §1
To determine the effect of the selected natural compounds on HIF-1α protein expression, Western blotting was performed on HEK293T cells. […] Accordingly, the effect of five compounds with HIF-1α inhibitory activity on DLL4 reporter activity in ECs was also investigated. […] Therefore, Compound #57 was selected as a potential inhibitor of HIF-1α and DLL4.

[7] = test system: HIF-1α target genes VEGF, GLUT1, CXCR4, and CA9; test: Western blot analysis of HIF-1α target gene protein levels; assay type: cell-based; conditions: hypoxia, compared to vehicle control group (FIG. 4d)
Protocol: as §1

DLL4 [8] = test: DLL4-luciferase dual-luciferase assay in EA.hy926 cells with VEGF; assay type: cell-based, human
Protocol: (§3) To perform the HRE-luciferase assay, HEK293T cells were seeded in a 96-well plate at a density of 5×10^3 cells/well and cultured at 37°C. Next, cells were co-transfected with pGL3-HRE-luciferase plasmid and pRL-SV40 Renilla plasmid containing 5 copies of HRE of human VEGF gene using a vivamagic transfection reagent (Vivagen, Seongnam, Korea) (Kwon et al., 2015). After 24 h, cells were pretreated with various concentrations of natural compounds for 1 h and then incubated under hypoxia conditions for 24 h. To perform the DLL4-luciferase assay, EA.hy926 cells were seeded in 24-well plates at a density of 4 × 10^4 cells/well and cultured at 37 °C for 24 h. Cells were co-transfected with pGL3-DLL4 luciferase and pRL-SV40 Renilla plasmids using Lipofectamine 2000 (Invitrogen) and cultured at 37°C for 24 h. Next, the cells were incubated with various concentrations of natural compounds for 1 h and then incubated for 24 h in the presence or absence of VEGF (10 ng/mL). The luminescence of HRE- and DLL4-promoter activities was detected using a microplate reader and the Dual-Luciferase Assay Kit (Promega, Madison, WI, USA) according to the manufacturer's instructions. The luciferase activity of the natural compounds was normalized to Renilla luciferase activity.

Notch1, and NICD = test: Western blot analysis of VEGF-induced Notch1 and NICD protein levels; assay type: cell-based, human; conditions: HUVECs (FIG. 5a)
Protocol: as §1

HIF-1α [9] = test: HRE-luciferase dual-luciferase assay (HIF-1α promoter reporter activity); assay type: cell-based, human
Protocol: as §3
To select potential HIF-1α inhibitors, the effects of 70 natural compounds were tested on HIF-1α promoter reporter activity using a dual-luciferase assay.

HEK293T cells [10] = test: Lactate dehydrogenase cytotoxicity assay; assay type: cell-based, human; conditions: LDH release, hypoxia 24 h, compared to vehicle treatment (FIG. 3b)
Protocol: HEK293T cells were seeded at 2 × 10^3 cells/well in 96-well plates and cultured at 37 °C for 24 h. Next, the cells were treated with various concentrations of steppogenin for 24 h under hypoxia conditions. Lactate dehydrogenase (LDH) release values were evaluated using the Cytotoxicity LDH Assay Kit-WST (DOJINDO) according to the manufacturer's instructions. Cytotoxicity was measured using a microplate reader (Infinite M200 Pro; TECAN) at 490 nm.

HEK293T cells [11] = test: Cell counting kit-8 assay (cell viability under hypoxic conditions); assay type: cell-based, human; conditions: hypoxia, compared to vehicle treatment (FIG. 3a)
Protocol: HEK293T cells were seeded at a density of 5 × 10^3 cells/well in 96-well plates and cultured at 37°C for 24 h. After 24 hours, the natural compounds were diluted in the medium according to the concentration and replaced. Cell viability was determined after exposure to hypoxic conditions for 24 h using the Cell Counting Kit-8 (DOJINDO, Rockville, MD, USA) according to the manufacturer's instructions, and measured using a microplate reader (Infinite M200 Pro; TECAN, Mannedorf, Switzerland) at 450 nm.
To test the inhibitory activity of 70 natural compounds on HIF-1 and DLL4 activity, their cytotoxic effects on immortalized normal cells were first tested under hypoxia conditions. In particular, under these conditions, HEK293T cells were treated with compounds at various concentrations (0.1 to 10 µM).

[12] = 17-AAG 25 mg/kg, steppogenin 2 mg/kg
[13] = immunohistochemical staining, compared to control group, 17-AAG 25 mg/kg, steppogenin 2 mg/kg (FIG. 6c)
[14] = tumor tissues, steppogenin 2 mg/kg (FIG. 6e)
[15] = ECs, VEGF treatment, screening (FIG. 2c)

SMILES: C=CCNC1=C2C[C@@H](C)C[C@H](OC)[C@H](O)[C@@H](C)/C=C(\C)[C@H](OC(N)=O)[C@@H](OC)/C=C\C=C(/C)C(=O)NC(=CC1=O)C2=O [Compound 17-AAG, tanespimycin, reference compound]
average body weights between the groups during the administration period [1, 12]: no significant difference

IC50 (DLL4 [8]; Homo sapiens, EA.hy 926, EA.hy926 cells (FIG. 3f)): 8.46 ± 1.08 µM | HRE-luciferase reporter activity (HIF-1α [9]; 0.1 to 10 µM, dose-dependent, hypoxia (FIG. 3c)): significantly inhibited | IC50 (HIF-1α [9]; Homo sapiens, 72 h, HRE-luciferase reporter, hypoxia (FIG. 3d), read-out: half-maximal inhibitory concentration (IC50) for HIF-1α activity): 0.56 ± 0.043 µM
SMILES: O=C1C[C@@H](c2ccc(O)cc2O)Oc2cc(O)cc(O)c21 [steppogenin, (2S)-2-(2,4-dihydroxyphenyl)-5,7-dihydroxy-2,3-dihydrochromen-4-one]
intranuclear expression of HIF-1α (HIF-1α [2]): decreased | average body weights between the groups during the administration period [1, 12]: no significant difference | tumor growth ([1]; 17-AAG 25 mg/kg, steppogenin 2 mg/kg, intraperitoneal, days 7, 9, 11, 13, 15 (FIG. 6a)): significantly inhibited | HIF-1α expression level in tumors [1, 13]: significantly reduced | hypoxic region in tumors [1, 13]: significantly reduced | microvessel density analyzed using CD34 antibody ([1]; steppogenin 2 mg/kg, compared to control tissue (FIG. 6d)): significantly reduced | infiltration of CD3+ T cells [1, 14]: significantly increased | ratio of CD8+ to CD4+ T cells in tumors [1, 14]: decreased | wound closure (EA.hy926 cells; HUVECs, hypoxia, 0 h to 8 h (FIG. 5c)): significantly reduced | number of migrating cells (EA.hy926 cells; hypoxia (FIG. 5c)): significantly reduced | DLL4 protein level induced by VEGF (DLL4 [3]; [15]): significantly suppressed | VEGF-induced DLL4 protein levels (DLL4 [3]; HUVECs (FIG. 5a)): dose-dependently reduced | level of Ki-67, a cell proliferation marker (Ki-67): decreased | DLL4 expression in ECs (DLL4 [4]): dramatically suppressed | mRNA expression of CA9 [5]: inhibited | mRNA expression of CXCR4 [5]: inhibited | mRNA expression of GLUT1 [5]: inhibited | mRNA expression of VEGF [5]: inhibited | germination ability (number of germinations) in 3D EC spheroid cultures (EA.hy 926 cell): significantly inhibited | HIF-1α protein levels (HIF-1α [6]; A549, hypoxia): significantly inhibited | HIF-1α protein levels (HIF-1α [6]; ARPE19, hypoxia): significantly inhibited | HIF-1α protein expression (HIF-1α [6]; HEK293T cells, hypoxia, screening of selected compounds (FIG. 2b)): inhibited | HIF-1α protein levels (HIF-1α [6]; HEK293T, hypoxia): significantly inhibited | protein levels of CA9 [7]: suppressed | protein levels of CXCR4 [7]: suppressed | protein levels of VEGF [7]: suppressed | DLL4-luciferase reporter activity (DLL4 [8]; 0.3 to 10.0 µM, VEGF-treated (FIG. 3e)): significantly reduced | DLL4 luciferase activity induced by VEGF (DLL4 [8]; [15]): significantly suppressed | VEGF-induced NICD protein levels (Notch1, and NICD): dose-dependently reduced | VEGF-induced Notch1 protein levels (Notch1, and NICD): dose-dependently reduced | HRE-luciferase activity compared to the hypoxic vehicle (DMSO) control group (HIF-1α [9]; HEK293T cells, hypoxia 24 h, screening (FIG. 2a)): < 70% | cytotoxicity (HEK293T cells [10]): not altered | dose-dependent cell viability (HEK293T cells [11]): not altered
